Measured values from patent US20250019385A1, “SPIROCYCLIC ANNULATED 2-AMINO-3-CYANO THIOPHENES AND DERIVATIVES FOR THE TREATMENT OF CANCER” (Boehringer Ingelheim International GmbH, priority 2023, published 2025).

Legend:
LOVO cells = test: LOVO CTG proliferation assay (120 h) (CRC, G13D); type: cell-based; settings: Homo sapiens
Procedure: (§1) LOVO cells (ATCC No. CCL-229) are dispensed into black 384-well plates, flat and clear bottom (Greiner, PNr. 781091) at a density of 1000 cells per well in 60 μl DMEM (Sigma D6429)+10% FCS (fetal calf serum, HyClone, SH30084.03). Cells are incubated overnight at 37° C. in a humidified tissue culture incubator at 5% CO2. Compounds (10 mM stock in DMSO) are added at logarithmic dose series using the ECHO acoustic liquid handler system (Beckman Coulter), normalizing for added DMSO and including DMSO controls. All compound treatments are performed in technical duplicates. For the TO time point measurement, untreated cells are analyzed at the time of compound addition. Plates are incubated for 120 h, and cell viability is measured using CellTiter-Glo luminescent cell viability reagent (Promega product code G7570). Viability (stated as percent of control) is defined as relative luminescence units RLU of each well divided by the RLU of cells in DMSO controls. IC50 values are determined from viability measurements by non-linear regression using a four-parameter model.
(§2) IC50 values of representative compounds according to the invention measured with these assays in the indicated cell lines are presented in Table 46.

[1] = target: KRAS (G12D)::SOS1 protein-protein interaction (Homo sapiens (Human), UniProt P01116, G12D); test: KRAS::SOS1 AlphaScreen binding assay (KRAS G12D); settings: GDP
Summary of the method: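 AlphaScreen assay with KRAS G12D (1-169, 6His/avi-tagged, 10 nM), GST-SOS1 564-1049 (5 nM) and GDP (10 μM) in PBS, 0.1% BSA, 0.05% Tween 20; compound up to 100 μM top concentration, eleven fivefold dilutions in duplicate. After 30 min, glutathione acceptor and streptavidin donor beads (10 μg/mL each) were added and signal read after a further 60 min at room temperature in the dark; IC50 from 4-parameter logistic fit.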

SK-CO-1 cells = test: SK-CO-1 CTG proliferation assay (120 h) (CRC, G12V); type: cell-based; settings: Homo sapiens
Procedure: as §1, with “SK—CO-1” for “LOVO”, “HTB-39)” for “No. CCL-229)”, “500” for “1000”, “EMEM” for “DMEM”, “M5650)+10%” for “D6429)+10%”
as §2

NCI-H358 cells = test: NCI-H358 CTG proliferation assay (120 h) (NSCLC, G12C); type: cell-based; settings: Homo sapiens
Procedure: as §1, with “NCI-H358” for “LOVO”, “CRL-5807)” for “CCL-229)”, “200” for “1000”, “RPMI-1640 ATCC-Formulation (Gibco #A10491)+10%” for “DMEM (Sigma D6429)+10%”, “serum).” for “serum, HyClone, SH30084.03).”
as §2

Sequence of KRAS (G12D)::SOS1 protein-protein interaction (P01116 other isoform, or with tags, fused parts or gaps G12D): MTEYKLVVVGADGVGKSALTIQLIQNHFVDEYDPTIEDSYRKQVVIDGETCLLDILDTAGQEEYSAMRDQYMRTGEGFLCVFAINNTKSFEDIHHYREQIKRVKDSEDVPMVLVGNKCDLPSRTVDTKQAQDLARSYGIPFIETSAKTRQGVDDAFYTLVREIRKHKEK

SMILES	IC50 (LOVO cells)	IC50 [1]	IC50 (SK-CO-1 cells)	IC50 (NCI-H358 cells)
C[C@H](Oc1nc(-c2onc3c2CCC[C@@]32CCCc3sc(N)c(C#N)c32)nc2c1cnn2[C@@H]1CCOC1)[C@@H]1CCCN1C [I-43]	15 nM	2 nM	56 nM	71 nM
C[C@@H]1COC[C@H](n2c(=O)n(C)c3c(O[C@@H](C)[C@@H]4CCCN4C)nc(-c4onc5c4CCC[C@@]54CCCc5sc(N)c(C#N)c54)nc32)C1 [I-44]	12 nM	1 nM	5 nM	7 nM
C[C@H](Oc1nc(-c2onc3c2CCC[C@@]32CCCc3sc(N)c(C#N)c32)nc2c1n(C)c(=O)n2[C@@]12COC[C@@H]1C2)[C@@H]1CC[C@H](C)N1C [I-45]	9 nM	1 nM	4 nM	5 nM
CO[C@@H]1C[C@@H]([C@H](C)Oc2nc(-c3onc4c3CCC[C@@]43CCCc4sc(N)c(C#N)c43)nc3c2n(C)c(=O)n3[C@@]23COC[C@@H]2C3)N(C)C1 [I-46]	21 nM	1 nM	4 nM	6 nM
C[C@H](Oc1nc(-c2onc3c2CCC[C@@]32CCCc3sc(N)c(C#N)c32)nc2c1COC[C@]21CCOC1)[C@@H]1CCCN1C [I-54]	4 nM	1 nM	3 nM	3 nM
C[C@H](Oc1nc(-c2onc3c2CCC[C@@]32CCCc3sc(N)c(C#N)c32)nc2c1CN(C1COC1)C[C@]21CCOC1)[C@@H]1CC[C@H](C)N1C [I-55]	26 nM	1 nM	6 nM	5 nM
C[C@H](Oc1nc(-c2onc3c2CCC[C@@]32CCCc3sc(N)c(C#N)c32)nc2c1CN(C1COC1)C[C@]21CCOC1)[C@@H]1CCCN1C [I-56]	43 nM	1 nM	7 nM	6 nM
CO[C@H]1CCN(C)[C@@H]1[C@H](C)Oc1nc(-c2onc3c2CCC[C@@]32CCCc3sc(N)c(C#N)c32)nc2c1CN(C1COC1)C[C@]21CCOC1 [I-57]	39 nM	1 nM	7 nM	4 nM
CO[C@@H]1C[C@@H]([C@H](C)Oc2nc(-c3onc4c3CCC[C@@]43CCCc4sc(N)c(C#N)c43)nc3c2CN(C2COC2)C[C@]32CCOC2)N(C)C1 [I-58]	84 nM	1 nM	9 nM	5 nM
CO[C@H]1CCN(C)[C@@H]1[C@H](C)Oc1nc(-c2noc3c2CCC[C@@]32CCCc3sc(N)c(C#N)c32)nc2c1n(C)c(=O)n2[C@@H]1CCOC1 [II-1]	2 nM	1 nM	4 nM	4 nM
C[C@H](Oc1nc(-c2noc3c2CCC[C@@]32CCCc3sc(N)c(C#N)c32)nc2c1n(C)c(=O)n2[C@@H]1CCOC1)[C@@H]1CCCN1C [II-2]	8 nM	1 nM	3 nM	4 nM
CO[C@H]1CCN(C)[C@@H]1[C@H](C)Oc1nc(-c2noc3c2CCC[C@@]32CCCc3sc(N)c(C#N)c32)nc2c1n(C)c(=O)n2[C@@H]1CCCOC1 [II-3]	2 nM	2 nM	5 nM	8 nM
C[C@H](Oc1nc(-c2noc3c2CCC[C@@]32CCCc3sc(N)c(C#N)c32)nc2c1cnn2[C@@H]1CCOC1)[C@@H]1CCCN1C [II-4]	24 nM	1 nM	10 nM	35 nM
C[C@H](Oc1nc(-c2noc3c2CCC[C@@]32CCCc3sc(N)c(C#N)c32)nc2c1n(C)c(=O)n2[C@H]1CO[C@@H](C)C1)[C@@H]1CCCN1C [II-5]	3 nM	1 nM	1 nM	1 nM
CO[C@@H]1C[C@@H]([C@H](C)Oc2nc(-c3noc4c3CCC[C@@]43CCCc4sc(N)c(C#N)c43)nc3c2n(C)c(=O)n3[C@@]23COC[C@@H]2C3)N(C)C1 [II-6]	11 nM	1 nM	2 nM	3 nM
C[C@H](Oc1nc(-c2noc3c2CCC[C@@]32CCCc3sc(N)c(C#N)c32)nc2c1CN(c1ncccn1)[C@]21CCOC1)[C@@H]1CCCN1C [II-7a]	11 nM	2 nM	32 nM	18 nM
C[C@H](Oc1nc(-c2noc3c2CCC[C@@]32CCCc3sc(N)c(C#N)c32)nc2c1CN(c1ncccn1)[C@@]21CCOC1)[C@@H]1CCCN1C [II-7b]	130 nM	5 nM	154 nM	106 nM
C[C@H](Oc1nc(-c2noc3c2CCC[C@@]32CCCc3sc(N)c(C#N)c32)nc2c1COC[C@]21CCOC1)[C@@H]1CCCN1C [II-8]	2 nM	1 nM	1 nM	1 nM
C[C@H](Oc1nc(-c2noc3c2CCC[C@@]32CCCc3sc(N)c(C#N)c32)nc2c1COC[C@@]21CCOC1)[C@@H]1CCCN1C [II-9a]	274 nM	2 nM	101 nM	74 nM
C[C@H](Oc1nc(-c2noc3c2CCC[C@@]32CCCc3sc(N)c(C#N)c32)nc2c1CCO[C@]21CCOC1)[C@@H]1CCCN1C [II-9b]	12 nM	1 nM	9 nM	5 nM
C[C@H](Oc1nc(-c2noc3c2CCC[C@@]32CCCc3sc(N)c(C#N)c32)nc2c1CCCO[C@]21CCOC1)[C@@H]1CCCN1C [II-10]	11 nM	1 nM	4 nM	5 nM
CO[C@@H]1C[C@@H]([C@H](C)Oc2nc(-c3noc4c3CCC[C@@]43CCCc4sc(N)c(C#N)c43)nc3c2COC[C@]32CCOC2)N(C)C1 [II-11]	6 nM	1 nM	4 nM	3 nM
C[C@H](Oc1nc(-c2noc3c2CCC[C@@]32CCCc3sc(N)c(C#N)c32)nc2c1CN(C1COC1)C[C@]21CCOC1)[C@@H]1CCCN1C [II-12]	71 nM	1 nM	5 nM	4 nM
CO[C@H]1CCN(C)[C@@H]1[C@H](C)Oc1nc(-c2noc3c2CCC[C@@]32CCCc3sc(N)c(C#N)c32)nc2c1CN(C1COC1)C[C@]21CCOC1 [II-13]	8 nM	1 nM	3 nM	2 nM
CO[C@@H]1C[C@@H]([C@H](C)Oc2nc(-c3noc4c3CCC[C@@]43CCCc4sc(N)c(C#N)c43)nc3c2CN(C2COC2)C[C@]32CCOC2)N(C)C1 [II-14]	18 nM	1 nM	6 nM	4 nM
C[C@H](Oc1nc(-c2noc3c2CCC[C@@]32CCCc3sc(N)c(C#N)c32)nc2c1CNC[C@]21CCOC1)[C@@H]1CCCN1C [II-15]	17 nM	1 nM	5 nM	1 nM
C[C@H](Oc1nc(-c2noc3c2CCC[C@@]32SCCc3sc(N)c(C#N)c32)nc2c1COC[C@]21CCOC1)[C@@H]1CCCN1C [II-16]	7 nM	1 nM	2 nM	1 nM
C[C@H](Oc1nc(-c2noc3c2CCC[C@@]32CCCc3sc(N)c(C#N)c32)nc2c1CN(C1COC1)C[C@]21CCOC1)[C@@H]1CC[C@H](C)N1C [II-17]	109 nM	1 nM	5 nM	5 nM
C[C@H](Oc1nc(-c2noc3c2CCC[C@@]32CCCc3sc(N)c(C#N)c32)nc2c1CCC21CCOC1)[C@@H]1CCCN1C (some centres unmarked) [II-18]	141 nM	2 nM	79 nM	43 nM
